Results taken from US6846843B2, “β-thioamino acids” (Gruenenthal GmbH, priority 2000, dated 2005).
Where a name gives a salt, the structure may show the parent alone. Read-outs that look alike come from different tables or passages of the source.

Legend:
gabapentin binding site = assay: Gabapentin binding assay (displacement of gabapentin from its binding site); conditions: for IC50: displacement of gabapentin, read-out: Affinity (IC50); for % Inhibition (Concn.): inhibition of gabapentin binding
Procedure: Gabapentin is used in the binding assay in order to determine the binding and affinities of the selected compounds. The affinity of the compounds according to the invention is measured via the displacement of gabapentin from its binding site.

[1] = system: formalin-induced nociception; assay: Formalin test on mice (second phase); type: in vivo; conditions: mouse, second phase, read-out: Mouse Formalin Test ED50
Procedure: The investigations to determine the antinociceptive action of the compounds according to the invention were carried out by the formalin test on male albino mice (NMRI, 25-35 g, Iffa Credo, Belgium).
In the formalin test the first (early) phase (0-15 minutes after the formalin injection) and the second (late) phase (15-60 minutes after the formalin injection) differ (D. Dubuisson et al., Pain, Vol. 4, pp. 161-174 (1977)). The early phase, being a direct reaction to the formalin injection, constitutes a model for acute pain, whereas the late phase is regarded as a model for persistent (chronic or inflammatory) pain (T. J. Coderre et al., Pain, Vol. 52, pp. 259-285 (1993)).
The compounds according to the invention were investigated in the second phase of the formalin test in order to obtain information on the effects of substances in chronic/inflammatory pain.
By means of a single subcutaneous formalin injection (20 μl, 1% aqueous solution) into the dorsal side of the right-hand rear paw, a nociceptive reaction was induced in unconstrained experimental animals, manifested in a noticeable licking and biting of the affected paw. The nociceptive behavior during the investigation period in the second (late) phase of the formalin test was continuously monitored by observing the animals. The pain reaction was quantified by totalling the time in seconds during which the animals continued to lick and bite the affected paw during the investigation period. After injecting substances that have an antinociceptive effect in the formalin test, the aforedescribed behavior pattern of the animals is reduced or possibly even eliminated. Corresponding to the substance tests, in which the animals had been injected with the test substance before formalin, the control animals were injected with a vehicle, i.e. solvent (e.g. 0.9% NaCl solution) before the formalin injection. The behavior of the animals after administration of the substance (n=10 per substance dose) was compared with a control group (n=10).
Based on the quantification of the pain reaction, the effect of the substance in the formalin test was determined as the change in the control in percentage terms. The ED50 calculations were carried out by means of regression analysis. The application time before the formalin injection (intraperitoneally: 15 minutes, intravenously: 5 minutes) was chosen depending on the type of application of the compounds according to the invention.

[2] = system: phenylquinone-induced writhing reactions; assay: Phenylquinone-induced writhing test in mice; type: in vivo; conditions: iv; mouse, i.v., 10 minutes before phenylquinone; read-out: Writhing Mouse i.v. ED50
Procedure: The antinociceptive effectiveness of the compounds according to the invention was investigated in mice using the phenylquinone-induced writhing test as modified by I. C. Hendershot and J. Forsaith, J. Pharmacol. Exp. Ther. 125, 237-240 (1959)). Male NMRI mice weighing 25-30 g were used for this purpose. Groups of 10 animals per substance dose were given intraperitoneally 10 minutes after intravenous administration of a compound according to the invention, 0.3 ml/mouse of a 0.02% aqueous solution of phenylquinone (phenylbenzoquinone, from Sigma, Deisenhofen; solution prepared by addition of 5% of ethanol and storage in a water bath at 45° C.). The animals were placed individually in observation cages. The number of pain-induced stretching movements (so-called writhing reactions=contortion of the body accompanied by stretching of the rear extremities) 5-20 minutes after administration of the phenylquinone were counted using a push-button counter. Animals that had received physiological saline solution i.v. and phenylquinone […]. served as controls.
All substances were tested in the standard dose of 10 mg/kg.

| IC50 (gabapentin binding site) | % Inhibition (Concn.) (gabapentin binding site) | SMILES | further results |
| --- | --- | --- | --- |
| 268 nM |  | CCC(C)(S)C(N)C(=O)O (racemic) [Compound 1, rac-2-amino-3-mercapto-3-methylpentanoic acid hydrochloride] |  |
| 165 nM |  | CCCC(C)(S)C(N)C(=O)O.Cl (racemic) [Compound 2, rac-2-amino-3-mercapto-3-methylhexanoic acid hydrochloride] | ED50 ([1]; iv, i.v.): 158 mg/kg |
| 280 nM | 99.7% | CCCCC(C)(S)C(N)C(=O)O.Cl (racemic) [Compound 3, rac-2-amino-3-mercapto-3-methylheptanoic acid hydrochloride] |  |
|  |  | CCCCCCC(C)(S)C(N)C(=O)O.Cl (racemic) [Compound 5, rac-2-amino-3-mercapto-3-methylnonanoic acid hydrochloride] | IC50 (gabapentin binding site; hydrochloride): 70 nM; ED50 ([1]; ip, i.p.): 54 mg/kg |
| 258 nM |  | CCC(S)(CC)C(N)C(=O)O (racemic) [Compound 7, rac-2-amino-3-ethyl-3-mercaptopentanoic acid hydrochloride] |  |
| 151 nM |  | Cl.NC(C(=O)O)C1(S)CCCC1 (racemic) [Compound 8, rac-amino-(1-mercaptocyclopentyl)acetic acid hydrochloride] | ED50 ([1]; iv, i.v.): 79 mg/kg; ED50 [2]: 70 mg/kg |
| 339 nM | 97.5% | CCCC(S)(CC)C(N)C(=O)O.Cl (racemic) [Compound 9, rac-amino-3-ethyl-3-mercaptohexanoic acid hydrochloride] |  |
|  |  | CCCCCCCC(C)(S)C(N)C(=O)O.Cl (racemic) [Compound 10, rac-threo-2-amino-3-mercapto-3-methyldecanoic acid hydrochloride] | IC50 (gabapentin binding site; hydrochloride): 150 nM; ED50 ([1]; ip, i.p.): 105 mg/kg |
|  |  | CCCCCCCC(C)(S)C(N)C(=O)O (racemic) [Compound 11, rac-erythro-2-amino-3-mercapto-3-methyldecanoic acid hydrochloride] | IC50 (gabapentin binding site; hydrochloride): 120 nM |
|  |  | CCCCCCC(C)(S)C(N)C(=O)O (racemic) [Compound 12, rac-threo-2-amino-3-mercapto-3-methylnonanoic acid hydrochloride] | IC50 (gabapentin binding site; hydrochloride): 70 nM; ED50 ([1]; ip, i.p.): 78 mg/kg |
|  |  | CCCCCCC(C)(S)C(N)C(=O)O (racemic) [Compound 13, rac-erythro-2-amino-3-mercapto-3-methylnonanoic acid hydrochloride] | IC50 (gabapentin binding site; hydrochloride): 30 nM |
|  |  | CCCCCC(C)(S)C(N)C(=O)O (racemic) [Compound 14, rac-threo-2-amino-3-mercapto-3-methyloctanoic acid hydrochloride] | IC50 (gabapentin binding site; hydrochloride): 100 nM |
|  | 92% (10^−5 μm) | CCCCCC(C)(SCC)C(N)C(=O)O.Cl (racemic) [Compound 15, rac-2-amino-3-ethylsulfanyl-3-methyloctanoic acid hydrochloride] |  |
| 1800 nM | 93% | CCCCCC(C)(SCc1ccccc1)C(N)C(=O)O (racemic) [Compound 16, rac-threo-2-amino-3-benzylsulfanyl-3-methyl-octanoic acid hydrochloride] |  |
| 2350 nM |  | CCCC(S)(CCC)C(N)C(=O)O (racemic) [Compound 17, rac-2-amino-3-mercapto-3-propyl-3-hexanoic acid hydrochloride] |  |
|  | 15% (10^−5 μm) | Cl.NC(C(=O)O)C1(S)CCCCCC1 (racemic) [Compound 18, rac-amino-(1-mercaptocycloheptyl)acetic acid hydrochloride] |  |
| 271 nM |  | CCCCCCC(C)(SCC)C(N)C(=O)O (racemic) [Compound 19, rac-2-amino-3-ethylsulfanyl-3-methylnonanoic acid hydrochloride] |  |
| 3050 nM |  | CCCCCCC(C)(SCCC)C(N)C(=O)O (racemic) [Compound 20, rac-2-amino-3-methyl-3-propylsulfanylnonanoic acid hydrochloride] |  |

| IC50 (gabapentin binding site) | % Inhibition (Concn.) (gabapentin binding site) | SMILES | further results |
| --- | --- | --- | --- |
| 12400 nM |  | CCCCCCSC(C)(CCCCCC)C(N)C(=O)O (racemic) [Compound 21, rac-2-amino-3-hexylsulfanyl-3-methylnonanoic acid hydrochloride] |  |
| 336 nM |  | CCCCCCC(C)(SCc1ccccc1)C(N)C(=O)O (racemic) [Compound 22, rac-2-amino-3-benzylsulfanyl-3-methyl-nonanoic acid hydrochloride] |  |
|  | 91% (10^−5 μm) | CCCCCCCC(C)(SCc1ccccc1)C(N)C(=O)O.Cl (racemic) [Compound 23, rac-2-amino-3-benzylsulfanyl-3-methyldecanoic acid hydrochloride] |  |
|  | 90% (10^−5 μm) | CCCCCCCC(C)(SCC)C(N)C(=O)O.Cl (racemic) [Compound 24, rac-2-amino-3-ethylsulfanyl-3-methyldecanoic acid hydrochloride] |  |
|  | 40% (10^−5 μm) | Cl.NC(C(=O)O)C(S)(c1ccc(F)cc1)C1CC1 (racemic) [Compound 25, rac-2-amino-3-cyclopropyl-3-(4-fluorophenyl)-3-mercapto-propionic acid hydrochloride] |  |
| 703 nM |  | CC(S)(C1CC1)C(N)C(=O)O (racemic) [Compound 26, rac-2-amino-3-cyclopropyl-3-mercaptobutanoic acid hydrochloride] |  |
| 589 nM |  | CC(S)(C1CCC1)C(N)C(=O)O (racemic) [Compound 27, rac-2-amino-3-cyclobutyl-3-mercapto-butanoic acid hydrochloride] |  |
| 1320 nM |  | CC(S)(C1CCCCC1)C(N)C(=O)O (racemic) [Compound 28, rac-2-amino-3-cyclohexyl-3-mercaptobutanoic acid hydrochloride] |  |
|  | 30% (10^−5 μm) | CC(S)(c1cccs1)C(N)C(=O)O.Cl (racemic) [Compound 29, rac-2-amino-3-mercapto-3-thiophen-2-yl-butanoic acid hydrochloride] |  |
| 314 nM |  | CCCCC(S)(CC)C(N)C(=O)O (racemic) [Compound 30, rac-2-amino-3-ethyl-3-mercaptoheptanoic acid hydrochloride] |  |
| 187 nM |  | NC(C(=O)O)C1(S)CCCCC1 (racemic) [Compound 31, rac-amino-(1-mercaptocyclohexyl)ethanoic acid hydrochloride] |  |
| 223 nM |  | CC1CCCC(S)(C(N)C(=O)O)C1 (racemic) [Compound 32, rac-amino-(1-mercapto-3-methylcyclohexyl)ethanoic acid hydrochloride] |  |
| 528 nM |  | CC1CCCCC1(S)C(N)C(=O)O (racemic) [Compound 33, rac-amino-(1-mercapto-2-methylcyclohexyl)ethanoic acid hydrochloride] |  |
| 1000 nM |  | CC1CCC(S)(C(N)C(=O)O)CC1 (racemic) [Compound 34, rac-amino-(1-mercapto-4-methylcyclohexyl)ethanoic acid hydrochloride] |  |
|  | 84% (10^−5 μm) | Cl.NC(C(=O)O)C1(S)CCSCC1 (racemic) [Compound 35, rac-amino-(4-mercaptotetrahydrothiopyran-4-yl)ethanoic acid hydrochloride] |  |
|  | 88% (10^−5 μm) | CC(C)C(C)(S)C(N)C(=O)O.Cl (racemic) [Compound 36, rac-2-amino-3-mercapto-3,4-dimethylpentanoic acid hydrochloride] |  |
| 196 nM |  | CCC(C)C(C)(S)C(N)C(=O)O (racemic) [Compound 37, rac-2-amino-3-mercapto-3,4-dimethylhexanoic acid hydrochloride] |  |
